Eleven compounds from US4073891A, “N^2 -Arylsulfonyl-L-argininamides and the pharmaceutically acceptable salts thereof” (Mitsubishi Chemical Industries Limited, priority 1974, dated 1978) can be followed below.

SMILES strings stand for the structures.

The subject of one data set is mice. In words: acute toxicity (LD50), intraperitoneal administration. Type of data set: in vivo. To be noted: mice (male, 20 g). An excerpt:
Representative LD50 values, for example, for N^2 -(5,6,7,8-tetrahydro-1-naphthylsulfonyl)-N-(2-methoxyethyl)glycine, N^2 -(7-methyl-2-naphthylsulfonyl)-N-butylglycine and N^2 -(6,7-dimethyl-1-naphthylsulfonyl)-N-(2-methoxyethyl)glycine are above 1,500 milligrams per kilogram, respectively.

For another data set, the target named is T1, thrombin (Bos taurus, UniProt P00735).
T1 construct: purchased Mochida Pharmaceutical Co., Ltd
Briefly: fibrinogen coagulation time. It counts as biochemical. The note with it: bovine fibrinogen, thrombin 5 units/ml, borate saline buffer pH 7.4, 25° C; normal coagulation time 50-55 seconds. The method, then:
The measurement of the fibrinogen coagulation time was conducted as follows:
Immediately after mixing, the reaction mixture was transferred from the ice bath to a bath maintained at 25° C. Coagulation times were taken as the period between the time of transference to the 25° C bath and the time of the first appearance of fibrin threads. […] The term "concentration required to prolong the coagulation time by a factor of two" is the concentration of an active ingredient required to prolong the normal coagulation time 50-55 seconds to 100-110 seconds.

Consider `CCCCNC(=O)[C@H](CCCNC(=N)N)NS(=O)(=O)c1cccc2c(N(C)C)cccc12` [N^2 -dansyl-N-butyl-L-argininamide, reference compound], for which the “acute toxicity LD50” value in the data set with mice came to 75 milligrams per kilogram. Consider `CCCCN(C)C(=O)[C@H](CCCNC(=N)N)NS(=O)(=O)c1cccc2c(N(C)C)cccc12` [N^2 -dansyl-N-methyl-N-butyl-L-argininamide, reference compound], for which the “acute toxicity LD50” value in the data set with mice turned out to be 70 milligrams per kilogram. Regarding `CCCCN(CC(=O)O)C(=O)[C@H](CCCNC(=N)N)NS(=O)(=O)c1cccc2c1CCCC2` [Sample 1, N^2-(5,6,7,8-tetrahydro-1-naphthylsulfonyl)-L-arginyl-N-butylglycine], the “Concentration required to prolong the coagulation time by a factor of two” value (“Concentration required” for short) on thrombin worked out at 20 µM. On to `COCCN(CC(=O)O)C(=O)[C@H](CCCNC(=N)N)NS(=O)(=O)c1cccc2c1CCCC2` [Sample 3, N^2-(5,6,7,8-tetrahydro-1-naphthylsulfonyl)-L-arginyl-N-(2-methoxyethyl)glycine], for which the “Concentration required” value on thrombin amounted to 10 µM. In the data set with mice, the “acute toxicity LD50” value was “above 1,500 milligrams per kilogram”. In the case of `N=C(N)NCCC[C@H](NS(=O)(=O)c1ccc2c(c1)CCCC2)C(=O)N(CC(=O)O)Cc1ccccc1` [Sample 4, N^2-(5,6,7,8-tetrahydro-2-naphthylsulfonyl)-L-arginyl-N-benzylglycine], at thrombin, the “Concentration required” value was 30 µM. Regarding `CCCCN(CC(=O)O)C(=O)[C@H](CCCNC(=N)N)NS(=O)(=O)c1ccc2ccc(C)cc2c1` [Sample 14, N^2-(7-methyl-2-naphthylsulfonyl)-L-arginyl-N-butylglycine], the “Concentration required” value on thrombin turned out to be 0.3 µM. Besides, in the data set on mice, the “acute toxicity LD50” value is “above 1,500 milligrams per kilogram”. `COCCN(CC(=O)O)C(=O)[C@H](CCCNC(=N)N)NS(=O)(=O)c1ccc2ccc(C)cc2c1` [Sample 15, N^2-(7-methyl-2-naphthylsulfonyl)-L-arginyl-N-(2-methoxyethyl)glycine]: the “Concentration required” value at thrombin was 0.2 µM. On to `Cc1ccc2ccc(S(=O)(=O)N[C@@H](CCCNC(=N)N)C(=O)N(CC(=O)O)CC3CCCCC3)cc2c1` [Sample 17, N^2-(7-methyl-2-naphthylsulfonyl)-L-arginyl-N-cyclohexylmethylglycine], for which the “Concentration required” value on thrombin was 14 µM.

As to `COCCN(CC(=O)O)C(=O)[C@H](CCCNC(=N)N)NS(=O)(=O)c1cccc2ccc(C)cc12` [Sample 22, N^2-(7-methyl-1-naphthylsulfonyl)-L-arginyl-N-(2-methoxyethyl)glycine], the “Concentration required” value on thrombin came out at 20 µM. Consider `COCCN(CC(=O)O)C(=O)[C@H](CCCNC(=N)N)NS(=O)(=O)c1cccc2cc(C)c(C)cc12` [Sample 23, N^2-(6,7-dimethyl-1-naphthylsulfonyl)-L-arginyl-N-(2-methoxyethyl)glycine], for which, at thrombin, the “Concentration required” value was 10 µM. Moreover, the “acute toxicity LD50” value in the data set with mice is on record as “above 1,500 milligrams per kilogram”. Turning to `CCCCN(CC(=O)O)C(=O)[C@H](CCCNC(=N)N)NS(=O)(=O)c1cccc2c(N(C)C)cccc12` [Sample 24, N^2-(5-dimethylamino-1-naphthylsulfonyl)-L-arginyl-N-butylglycine], the “Concentration required” value on thrombin was 4 µM.
